Measurements as given in the CheMixHub viscosity set.
Several values for one entry are separate records, joined by “and”; a condition that tells them apart may be missing. Equal entries are not always repeated.

Assay: xn = mol fraction of the nth substance listed

[Cl-].[K+] + O
Conditions	viscosity
293.15 K, 101 kPa, x1 = 0.005905	0.9971 mPa·s and 0.9972 mPa·s
293.15 K, 101 kPa, x1 = 0.009253	0.9943 mPa·s
293.15 K, 101 kPa, x1 = 0.01811	0.9892 mPa·s and 0.989 mPa·s
293.15 K, 101 kPa, x1 = 0.02711	0.9882 mPa·s and 0.9881 mPa·s
293.15 K, 101 kPa, x1 = 0.03656	0.9913 mPa·s
293.15 K, 101 kPa, x1 = 0.0468	0.9995 mPa·s and 0.9994 mPa·s
293.15 K, 101 kPa, x1 = 0.07583	1.047 mPa·s
297.65 K, 100 kPa, x1 = 0.02628	0.905 mPa·s and 0.904 mPa·s
298.15 K, 100 kPa, x1 = 0.05933	0.932 mPa·s and 0.933 mPa·s
298.15 K, 101 kPa, x1 = 0.005905	0.8895 mPa·s
298.15 K, 101 kPa, x1 = 0.009253	0.8885 mPa·s and 0.8886 mPa·s
298.15 K, 101 kPa, x1 = 0.01811	0.8883 mPa·s and 0.8882 mPa·s
298.15 K, 101 kPa, x1 = 0.02711	0.8911 mPa·s and 0.891 mPa·s
298.15 K, 101 kPa, x1 = 0.0468	0.908 mPa·s and 0.9079 mPa·s
298.15 K, 101 kPa, x1 = 0.05806	0.9238 mPa·s
298.15 K, 101 kPa, x1 = 0.06612	0.9378 mPa·s and 0.9377 mPa·s
298.15 K, 101 kPa, x1 = 0.07583	0.9577 mPa·s and 0.9576 mPa·s
298.15 K, 101.3 kPa, x1 = 0.00072	0.8908 mPa·s
298.15 K, 101.3 kPa, x1 = 0.00162	0.8906 mPa·s
298.15 K, 101.3 kPa, x1 = 0.002874	0.8911 mPa·s
298.15 K, 101.3 kPa, x1 = 0.004484	0.8895 mPa·s
298.15 K, 101.3 kPa, x1 = 0.007154	0.8891 mPa·s
298.15 K, 101.3 kPa, x1 = 0.01245	0.8885 mPa·s
298.15 K, 101.3 kPa, x1 = 0.0177	0.8882 mPa·s
299.15 K, 100 kPa, x1 = 0.07333	0.95 mPa·s and 0.949 mPa·s
299.65 K, 100 kPa, x1 = 0.04316	0.888 mPa·s
300.15 K, 100 kPa, x1 = 0.008975	0.86 mPa·s and 0.858 mPa·s
303.15 K, 101 kPa, x1 = 0.005905	0.7997 mPa·s
303.15 K, 101 kPa, x1 = 0.009253	0.8005 mPa·s and 0.8003 mPa·s
303.15 K, 101 kPa, x1 = 0.01811	0.8034 mPa·s and 0.8032 mPa·s
303.15 K, 101 kPa, x1 = 0.03656	0.8174 mPa·s
303.15 K, 101 kPa, x1 = 0.0468	0.8296 mPa·s and 0.8294 mPa·s
303.15 K, 101 kPa, x1 = 0.05806	0.8467 mPa·s and 0.8466 mPa·s
303.15 K, 101 kPa, x1 = 0.06612	0.8611 mPa·s and 0.8612 mPa·s
303.15 K, 101 kPa, x1 = 0.07583	0.8802 mPa·s and 0.8799 mPa·s
307.15 K, 100 kPa, x1 = 0.05933	0.798 mPa·s and 0.799 mPa·s
308.15 K, 100 kPa, x1 = 0.05933	0.793 mPa·s and 0.794 mPa·s
308.15 K, 101.3 kPa, x1 = 0.00072	0.7204 mPa·s
308.15 K, 101.3 kPa, x1 = 0.00162	0.721 mPa·s
308.15 K, 101.3 kPa, x1 = 0.007154	0.7241 mPa·s
308.15 K, 101.3 kPa, x1 = 0.01245	0.7273 mPa·s
308.15 K, 101.3 kPa, x1 = 0.0177	0.7305 mPa·s
308.65 K, 100 kPa, x1 = 0.02628	0.738 mPa·s and 0.737 mPa·s
308.65 K, 100 kPa, x1 = 0.04316	0.761 mPa·s and 0.759 mPa·s
309.15 K, 100 kPa, x1 = 0.008975	0.717 mPa·s
309.15 K, 100 kPa, x1 = 0.07333	0.805 mPa·s
313.15 K, 101 kPa, x1 = 0.005905	0.6585 mPa·s
313.15 K, 101 kPa, x1 = 0.009253	0.661 mPa·s
313.15 K, 101 kPa, x1 = 0.01811	0.6685 mPa·s and 0.6683 mPa·s
313.15 K, 101 kPa, x1 = 0.02711	0.6774 mPa·s
313.15 K, 101 kPa, x1 = 0.03656	0.6885 mPa·s
313.15 K, 101 kPa, x1 = 0.0468	0.7028 mPa·s
313.15 K, 101 kPa, x1 = 0.05806	0.7211 mPa·s
313.15 K, 101 kPa, x1 = 0.06612	0.7359 mPa·s
313.15 K, 101 kPa, x1 = 0.07583	0.7551 mPa·s
316.15 K, 100 kPa, x1 = 0.008975	0.629 mPa·s and 0.63 mPa·s
317.65 K, 100 kPa, x1 = 0.02628	0.631 mPa·s
317.65 K, 100 kPa, x1 = 0.05933	0.686 mPa·s
318.15 K, 100 kPa, x1 = 0.07333	0.705 mPa·s and 0.706 mPa·s
318.15 K, 101.3 kPa, x1 = 0.00072	0.5972 mPa·s
318.15 K, 101.3 kPa, x1 = 0.00162	0.5983 mPa·s
318.15 K, 101.3 kPa, x1 = 0.002874	0.6 mPa·s
318.15 K, 101.3 kPa, x1 = 0.004484	0.601 mPa·s
318.15 K, 101.3 kPa, x1 = 0.007154	0.6037 mPa·s
319.15 K, 100 kPa, x1 = 0.04316	0.643 mPa·s and 0.64 mPa·s
323.15 K, 101 kPa, x1 = 0.005905	0.554 mPa·s
323.15 K, 101 kPa, x1 = 0.01811	0.5673 mPa·s
323.15 K, 101 kPa, x1 = 0.02711	0.5782 mPa·s
323.15 K, 101 kPa, x1 = 0.0468	0.6058 mPa·s
323.15 K, 101 kPa, x1 = 0.05806	0.6242 mPa·s
323.15 K, 101 kPa, x1 = 0.06612	0.6389 mPa·s
323.15 K, 101 kPa, x1 = 0.07583	0.6575 mPa·s

C1COCCO1 + CN(C)C=O
viscosity [mPa·s], 101 kPa
Conditions	x2 = 0.1181	x2 = 0.2316	x2 = 0.3406	x2 = 0.4455	x2 = 0.5465	x2 = 0.6439	x2 = 0.7377	x2 = 0.8282	x2 = 0.9156
298.15 K	1.109	1.043	0.984	0.934	0.891	0.859	0.835	0.82	0.811
308.15 K	0.952	0.899	0.849	0.807	0.772	0.746	0.726	0.714	0.708
318.15 K	0.843	0.797	0.753	0.713	0.68	0.653	0.636	0.624	0.618
